Literature values in US20110301189A1, “STABLE PHARMACEUTICAL COMPOSITIONS OF RAPAMYCIN ESTERS” (FRESENIUS KABI ONCOLOGY LTD., priority 2010, published 2011).

Conditions: aqueous solvents

COC1CC2CCC(C)C(O)(O2)C(=O)C(=O)N2CCCCC2C(=O)OC(C(C)CC2CCC(OC(=O)C(C)(CO)CO)C(OC)C2)CC(=O)C(C)/C=C(\C)C(O)C(OC)C(=O)C(C)CC(C)/C=C/C=C/C=C/1C (stereo not shown) [Rapamycin 42-ester with 3-hydroxy-2-(hydroxymethyl)-2-methylpropionic acid]
aqueous solubility: less than 1 μg/ml
